Laboratory results published in patent US10059975B2, “Methods for the isolation and identification of microorganisms” (bioMerieux, Inc., priority 2008, dated 2018).

Tests used:
Format in all cases: cell-based
[1] = system: Streptococcus pneumoniae, strain WM-43; assay: Effect of detergent type on Gram reactivity, viability and intrinsic fluorophores; design: key to Viability of Pellet: NG (no growth); 4+(maximal growth); details: for Gram Stain of Pellet: Bacteria (cocci): detergent in 0.3M CAPS, pH 11.7, 1 min at 37° C.; for Viability of Pellet: 1:100 dilution of resuspended pellet plated on Sheep Blood Agar, scale NG to 4+; for effect on Gram reaction/reactivity of the S. pneumoniae isolate (in words): Table 4
Experimental: Lysis buffers were prepared containing detergents of differing structure and lytic activity in a base buffer formulation of 0.3M CAPS, pH 11.7. These lysis buffers were functionally assessed using positive blood culture broth containing a clinical microorganism strain known to be sensitive to detergents and alkaline pH conditions, Streptococcus pneumoniae, strain WM-43. Parameters evaluated were microbial intrinsic fluorescence levels (Excitation-Emission Matrix spectra), separation efficiency, appearance of isolated microbial pellet, and Gram stain characteristics and viability of microorganisms recovered from the pellet beneath the density cushion.
The procedure was performed as follows:
Mix 2 parts of positive broth with 1 part of test lysis buffer, incubate in a 37° C. water bath for 1 minute to lyse blood cells, then layer 0.5 mL of lysate over 0.2 mL of density cushion (14% w/v Iohexyl+1.93% w/v NaCl+10 mM Hepes, pH 7.4) dispensed into a 2-piece optical separation tube which was then hermetically sealed with a screw-cap. After centrifuging the tube in an Eppendorf 5417R microcentrifuge fitted with a A-8-11 swing out rotor for 2 minutes at 10,000 rpm, the tube was placed into a custom-built adapter which coupled the base of the tube directly to a 400 micron fiber optic probe connected to a spectrofluorimeter (Fluorolog® 3 from Horiba Jobin-Yvon, New Jersey), and a complete EEM scan was taken (Ex 260-850 nm; Em 260-1100 nm; every 5 nm). Following the scan, the supernatant was removed and the microbial pellet resuspended in 0.5 mL of Tryptic Soy Broth (TSB). Smears of the suspensions were prepared for Gram staining and twenty microliters of a 1:100 dilution were plated onto Sheep Blood Agar plates for viability estimation on a scale of NG (no growth) to 4+(maximal growth).

[2] = system: S. pneumoniae strain, WM43; assay: Further testing of lysis buffers in combination with density cushions; details: irrespective of the makeup of the density cushion
H. influenzae = assay: Viable counts following lysis buffer treatment
Experimental: (§1) A screening model was developed to enable testing the sensitivity of a larger number of microbial isolates to several detergents. Briefly, suspensions of test fastidious microorganisms were spiked into human blood-containing BacT/ALERT® SA culture media at 10^3-10^5 CFU/mL. Samples were treated with test Lysis Buffers for 1-5 minutes at 37 C, then if required, diluted 1:100 into TSB and plated for viable counts.

A. actinomycetecomitans = assay: Viable counts following lysis buffer treatment
Experimental: as §1

S. pneumoniae WM43 = assay: Viable counts following lysis buffer treatment
Experimental: as §1

H. parainfluenzae = assay: Viable counts following lysis buffer treatment
Experimental: as §1

C. hominis = assay: Viable counts following lysis buffer treatment
Experimental: as §1

N. meningitidis = assay: Viable counts following lysis buffer treatment
Experimental: as §1

S. pneumoniae WM48 = assay: Viable counts following lysis buffer treatment
Experimental: as §1

[3] = system: S. pneumoniae, S. pyogenes, S. agalactiae, S. mitis, P. mirabilis, K. pneumoniae and E. coli; assay: Follow up experiment: viability after 5-minute contact time; details: data not shown
[4] = system: fastidious microorganisms; assay: Screening model, summary over the panel; details: summary of the colony counts of Table 6
Experimental: as §1

Question: With `CCCCCCCCO[C@@H]1O[C@H](CO)[C@@H](O)[C@H](O)[C@H]1O` [Detergent 1, n-octyl glucoside, reference compound] as the compound, how does the “Gram Stain of Pellet: Bacteria (cocci)” value [1] read?
Answer: No organisms seen

Question: With `C[C@H](CCC(=O)NCCC[N+](C)(C)CCCS(=O)(=O)[O-])[C@H]1CC[C@H]2[C@@H]3[C@H](O)C[C@@H]4C[C@H](O)CC[C@]4(C)[C@H]3C[C@H](O)[C@]12C` [Detergent 2, CHAPS, reference compound] as the compound, how does the “Gram Stain of Pellet: Bacteria (cocci)” value [1] read?
Answer: Rare Gram negative

Question: Which results are given for `CCCCCCCCCCCCOCCOCCOCCOCCOCCOCCOCCOCCOCCO` [Detergent 6, nonaethylene glycol monododecyl ether, reference compound]?
Answer: Viability of Pellet [1]: 4+; effect on Gram reaction/reactivity of the S. pneumoniae isolate (in words) [1]: relatively minor effect; viability of the recovered S. pneumoniae cells (in words) [2]: not as high

Question: With Arlasolve 200 [Detergent 11] as the compound, how does the “Gram Stain of Pellet: Bacteria (cocci)” value [1] read?
Answer: 3+ Gram positive

Question: Which “Gram Stain of Pellet: Bacteria (cocci)” value [1] does the source give for Brij ® 96V [Detergent 9] here?
Answer: 3+ Gram positive

Question: Which results are given for Brij ® 97 [Detergent 10]?
Answer: Viability of Pellet [1]: 4+; Gram Stain of Pellet: Bacteria (cocci) [1]: 3+ Gram positive; Viable Counts Following Lysis Buffer Treatment (H. influenzae; 1 min at 37 C): 0; Viable Counts Following Lysis Buffer Treatment (H. influenzae; 5 min at 37 C): 0; Viable Counts Following Lysis Buffer Treatment (A. actinomycetecomitans; 1 min at 37 C): 0; Viable Counts Following Lysis Buffer Treatment (A. actinomycetecomitans; 5 min at 37 C): 0; Viable Counts Following Lysis Buffer Treatment (S. pneumoniae WM43; 1 min at 37 C): 18; Viable Counts Following Lysis Buffer Treatment (S. pneumoniae WM43; 5 min at 37 C): 7; Viable Counts Following Lysis Buffer Treatment (H. parainfluenzae; 1 min at 37 C): 124; Viable Counts Following Lysis Buffer Treatment (H. parainfluenzae; 5 min at 37 C): 19; Viable Counts Following Lysis Buffer Treatment (C. hominis; 1 min at 37 C): 74; Viable Counts Following Lysis Buffer Treatment (C. hominis; 5 min at 37 C): 28; Viable Counts Following Lysis Buffer Treatment (N. meningitidis; 1 min at 37 C): 0; Viable Counts Following Lysis Buffer Treatment (N. meningitidis; 5 min at 37 C): 0; Viable Counts Following Lysis Buffer Treatment (S. pneumoniae WM48; 1 min at 37 C): 14; Viable Counts Following Lysis Buffer Treatment (S. pneumoniae WM48; 5 min at 37 C): 11; viability (in words) [3]: remained unaffected; toxicity over the panel (in words) [4]: minimal toxicity

Question: How did the “Gram Stain of Pellet: Bacteria (cocci)” value [1] turn out when Brij ® 98 [Detergent 12] was run?
Answer: 3+ Gram positive

Question: Which results are given for Genapol ® C-100 [Detergent 7]?
Answer: Gram Stain of Pellet: Bacteria (cocci) [1]: 3+ Gram positive; Viable Counts Following Lysis Buffer Treatment (H. influenzae; 1 min at 37 C): 0; Viable Counts Following Lysis Buffer Treatment (H. influenzae; 5 min at 37 C): 0; Viable Counts Following Lysis Buffer Treatment (A. actinomycetecomitans; 1 min at 37 C): 0; Viable Counts Following Lysis Buffer Treatment (A. actinomycetecomitans; 5 min at 37 C): 0; Viable Counts Following Lysis Buffer Treatment (S. pneumoniae WM43; 1 min at 37 C): 30; Viable Counts Following Lysis Buffer Treatment (S. pneumoniae WM43; 5 min at 37 C): 19; Viable Counts Following Lysis Buffer Treatment (H. parainfluenzae; 1 min at 37 C): 0; Viable Counts Following Lysis Buffer Treatment (H. parainfluenzae; 5 min at 37 C): 0; toxicity (in words) (H. parainfluenzae; compared with Brij® 97): slightly more toxic; Viable Counts Following Lysis Buffer Treatment (C. hominis; 1 min at 37 C): 0; Viable Counts Following Lysis Buffer Treatment (C. hominis; 5 min at 37 C): 0; toxicity (in words) (C. hominis; compared with Brij® 97): slightly more toxic; Viable Counts Following Lysis Buffer Treatment (N. meningitidis; 1 min at 37 C): 0; Viable Counts Following Lysis Buffer Treatment (N. meningitidis; 5 min at 37 C): 0; Viable Counts Following Lysis Buffer Treatment (S. pneumoniae WM48; 1 min at 37 C): 17; Viable Counts Following Lysis Buffer Treatment (S. pneumoniae WM48; 5 min at 37 C): 12; viability (in words) [3]: remained unaffected

Question: With Genapol ® X-080 [Detergent 5] as the compound, how does the “effect on Gram reaction/reactivity of the S. pneumoniae isolate (in words)” value [1] read?
Answer: relatively minor effect

Question: Which results are given for Genapol ® X-100 [Detergent 8]?
Answer: Viability of Pellet [1]: 4+; Gram Stain of Pellet: Bacteria (cocci) [1]: 3+ Gram positive

Question: Which results are given for Triton ® X100-R [Detergent 3]?
Answer: Gram Stain of Pellet: Bacteria (cocci) [1]: 2+ Gram negative; viability of the recovered S. pneumoniae cells (in words) [2]: not as high
